The subject of data set [1] is HCT116 cells. Put plainly: Inhibition of proliferation of the human colon tumor line HCT116 ([14C]-thymidine incorporation). Format: cell-based. The conditions noted are these: Homo sapiens, HCT-116, 48 h, 48 hours at 37° C., read-out: Inhibition of HCT116 proliferation IC 50 (μm). In short, it runs like this:
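HCT116 cells (5000/well) in DMEM with 10% fetal calf serum incubated 48 h at 37° C with [14C]-thymidine (0.1 μCi/well) and compound up to 10 μm (DMSO ≤0.5%). Incorporated radioactivity counted; IC50 is concentration cutting radioactivity by 50% versus untreated control.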

Data set [2] concerns HDMEC cells (Human Dermal Microvascular Endothelial Cells). Put plainly: Detachment of endothelial cells (test for determining the inhibition of vascularization). The data set is classed as cell-based. The conditions noted are these: two hours of treatment, calcein labeling, relative to untreated control. The source says: A test for determining the detachment of the endothelial cells was developed in order to select the products with regard to their “in vitro” activity. This test for determining the detachment of endothelial cells is characterized in that the endothelial cells, inoculated into plates whose bottom is covered with a binder preferably chosen from gelatin, fibronectin and vitronectin, after culturing, are supplemented with a medium containing the test compound, and the cells are then labeled with a fluorescent substance, the, cells which have become detached are removed by washing and the fluorescence of the remaining cells is counted in a fluorimeter.
This test consists in measuring the detachment of endothelial cells cultured on substrata based on a binder preferably chosen from fibronectin, vitronectin and gelatin. […] The fluorescence of the remaining cells is counted in a fluorimeter. […]
The evaluation of the detachment of the endothelial cells in vitro is determined in the following manner. […] The fluorescence of the cells that remain attached to the substratum of the well is counted using a fluorimeter, Spectrafluor Plus (Tecan excitation 485 nm, and emission 535 nm). The data are the mean of six different samples and are expressed as the percentage of the control (untreated cells). […]

Data set [3] concerns the target T1, tubulin (Sus scrofa, UniProt P02550+P02554).
T1 construct: Tubulin is purified from pig brain according to published methods; from tissue; host or cells: pig brain
Put plainly: Evaluation of the inhibition of tubulin polymerization (turbidimetry). Format: biochemical, pig. The conditions noted are these: tubulin 10 μm (1 mg/ml), 37° C., turbidity at 350 nm; concentration that inhibits the rate of polymerization by 50%; read-out: Inhibition of tubulin polymerization IC 50 (μm). In short, it runs like this: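 Pig brain tubulin (>95% pure), 10 μm in MES pH 6.8/30% glycerol buffer plus 1 mM GTP and 6 mM MgCl2, with compound at 0.5–10 μm added before polymerization. Polymerization triggered by shift from 6° C to 37° C, followed by turbidity at 350 nm; IC50 is 50% inhibition of polymerization rate.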

These results are taken from patent US20050130989A1, “N-arylheteroaromatic products compositions containing them and use thereof” (Aventis Pharma S. A., priority 2003, published 2005).

T1 sequence (P02550 whole entry): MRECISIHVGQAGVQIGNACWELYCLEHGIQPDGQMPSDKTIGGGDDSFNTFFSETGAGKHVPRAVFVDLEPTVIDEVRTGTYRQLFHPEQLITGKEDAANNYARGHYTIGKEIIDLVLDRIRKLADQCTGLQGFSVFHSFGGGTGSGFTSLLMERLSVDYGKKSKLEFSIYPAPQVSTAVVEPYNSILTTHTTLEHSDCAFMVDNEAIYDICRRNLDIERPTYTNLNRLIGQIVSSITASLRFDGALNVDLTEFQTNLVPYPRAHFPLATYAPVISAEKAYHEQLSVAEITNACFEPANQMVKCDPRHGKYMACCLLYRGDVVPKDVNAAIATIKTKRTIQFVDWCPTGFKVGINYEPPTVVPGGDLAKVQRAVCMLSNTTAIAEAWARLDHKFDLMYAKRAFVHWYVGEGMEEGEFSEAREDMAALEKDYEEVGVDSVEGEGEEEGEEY
T1 sequence (P02554 whole entry): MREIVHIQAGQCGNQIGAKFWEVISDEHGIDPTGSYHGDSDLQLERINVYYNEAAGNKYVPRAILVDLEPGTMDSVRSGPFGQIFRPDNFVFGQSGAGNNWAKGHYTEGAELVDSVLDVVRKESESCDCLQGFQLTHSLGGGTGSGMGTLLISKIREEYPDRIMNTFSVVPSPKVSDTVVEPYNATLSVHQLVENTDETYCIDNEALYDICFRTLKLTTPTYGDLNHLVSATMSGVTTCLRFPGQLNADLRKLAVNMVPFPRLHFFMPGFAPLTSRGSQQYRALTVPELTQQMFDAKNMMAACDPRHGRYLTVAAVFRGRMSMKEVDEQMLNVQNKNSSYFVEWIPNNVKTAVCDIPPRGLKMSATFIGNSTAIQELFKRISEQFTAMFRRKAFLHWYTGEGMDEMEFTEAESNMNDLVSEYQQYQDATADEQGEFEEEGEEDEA

Take `Cc1cc(C(=O)N2CCN(c3cccc(Cl)c3)CC2)n(-c2ccccc2)n1` [Example 1, [4-(3-Chlorophenyl)piperazin-1-yl](5-methyl-2-phenyl-2H-pyrazol-3-yl)methanone]: the IC50 in data set [1] was 2 nM; in data set [3], 600 nM. The “Percentage detachment of HDMEC at 1 μm” value in data set [2] is given as 22%.

Consider `Cc1cc(C(=O)N2CCN(c3ccc(C)c(C)c3)CC2)n(-c2ccccc2)n1` [Example 2, [4-(3,4-Dimethylphenyl)piperazin-1-yl](5-methyl-2-phenyl-2H-pyrazol-3-yl)methanone], for which the IC50 in data set [1] was determined as 160 nM; in data set [3] it was 600 nM. For the same compound, the “Percentage detachment of HDMEC at 1 μm” value in data set [2] is on record as 16%.

`Cc1cc(C(=O)N2CCN(c3cccc(Br)c3)CC2)n(-c2ccccc2)n1` [Example E6, [4-(3-Bromophenyl)piperazin-1-yl](5-methyl-2-phenyl-2H-pyrazol-3-yl)methanone] registered a melting point of 138 °C. For the same compound, in data set [1], the IC50 came out at 1.2 nM. For the same compound, the IC50 in data set [3] worked out at 900 nM.

Compound `Cc1cc(C(=O)N2CCN(c3cccc(N)c3)CC2)n(-c2ccccc2)n1` [Example E9, [4-(3-Aminophenyl)piperazin-1-yl](5-methyl-2-phenyl-2H-pyrazol-3-yl)methanone] returned a melting point of 158 °C. For the same compound, the IC50 in data set [1] came out at 53.1 nM. In data set [3], the IC50 turned out to be 3000 nM.

Take `Cc1cc(C(=O)N2CCN(c3cccc(C#N)c3)CC2)n(-c2ccccc2)n1` [Example E10, [4-(3-Cyanophenyl)piperazin-1-yl](5-methyl-2-phenyl-2H-pyrazol-3-yl)-methanone]: the melting point turned out to be 136 °C. The IC50 in data set [1] worked out at 4.9 nM. In addition, in data set [3], the IC50 stood at 900 nM.

`Cc1cc(C(=O)N2CCN(c3cccc(OC(F)(F)F)c3)CC2)n(-c2ccccc2)n1` [Example E11, [4-(3-Trifluoromethyloxyphenyl)piperazin-1-yl](5-methyl-2-phenyl-2H-pyrazol-3-yl)methanone]: the melting point turned out to be 107 °C. Moreover, in data set [1], the IC50 was 12 nM. Also, the IC50 in data set [3] came out at 1000 nM.

In the case of `Cc1cc(C(=O)N2CCN(c3ccc4c(c3)OCO4)CC2)n(-c2ccccc2)n1` [Example E12, [4-(1,3-Benzodioxol-5-yl)piperazin-1-yl](5-methyl-2-phenyl-2H-pyrazol-3-yl)-methanone], the melting point turned out to be 128 °C. The IC50 in data set [1] came out at 3.1 nM. In addition, in data set [3], the IC50 is 2300 nM.

As for `Cc1cc(C(=O)N2CCN(c3nccc4ccccc34)CC2)n(-c2ccccc2)n1.Cl` [Example E15, [4-(Isoquinolin-1-yl)piperazin-1-yl](5-methyl-2-phenyl-2H-pyrazol-3-yl)-methanone hydrochloride], the melting point stood at 128 °C. Also, the IC50 in data set [1] amounted to 239 nM. Also, the IC50 in data set [3] stood at 14000 nM.

With `Cc1cc(C(=O)N2CCN(c3cnccn3)CC2)n(-c2ccccc2)n1` [Example E19, (5-Methyl-2-phenyl-2H-pyrazol-3-yl)(2,3,5,6-tetrahydro-[1,2′]bipyrazinyl-4-yl)-methanone], the melting point is 129 °C. The IC50 in data set [1] worked out at 40 nM. Further, in data set [3], the IC50 was 6000 nM.

Compound `Cc1cc(C(=O)N2CCN(c3cccc(C(N)=O)c3)CC2)n(-c2ccccc2)n1` [Example E23, 3-[4-(5-Methyl-2-phenyl-2H-pyrazole-3-carbonyl)piperazin-1-yl]benzamide] came in with a melting point of 186 °C. Besides, in data set [1], the IC50 came out at 10 nM. Also, the IC50 in data set [3] stood at 320 nM.

Compound `Cc1cc(C(=O)N2CCN(c3cncc4ccccc34)CC2)n(-c2ccccc2)n1` [Example E41] had a melting point of 166 °C. Also, the IC50 in data set [1] was determined as 89.4 nM. Besides, the IC50 in data set [3] worked out at 4500 nM.

The compound `Cc1cc(C(=O)N2CCN(c3cccc(Cl)c3)CC2)n(-c2cccnc2)n1` [Example E52, [4-(3-Chlorophenyl)piperazin-1-yl][5-methyl-2-(pyrid-3-yl)-2H-pyrazol-3-yl]methanone] came in with a melting point of 124 °C. The IC50 in data set [1] is 10.2 nM. Besides, the IC50 in data set [3] was determined as 1410 nM.

With `COc1cc(OC)cc(N2CCN(C(=O)c3cc(C)nn3-c3cccnc3)CC2)c1` [Example E53, [4-(3,5-Dimethoxyphenyl)piperazin-1-yl][5-methyl-2-(pyrid-3-yl)-2H-pyrazol-3-yl]methanone], the melting point was found to be 60 °C. Besides, in data set [1], the IC50 is 11.1 nM. In data set [3], the IC50 is 620 nM.

For `Cc1cc(C(=O)N2CCN(c3cccnc3)CC2)n(-c2cccc(F)c2)n1` [Example E58, [2-(3-Fluorophenyl)-5-methyl-2H-pyrazol-3-yl](4-pyrid-3-ylpiperazin-1-yl)methanone], the melting point stood at 132 °C. Moreover, the IC50 in data set [1] was determined as 41.1 nM. The IC50 in data set [3] is 1000 nM.

The compound `Cc1cc(C)cc(N2CCN(C(=O)c3cc(C)nn3-c3ccccc3)CC2)c1` [Example E63, [4-(3,5-Dimethylphenyl)piperazin-1-yl](5-methyl-2-phenyl-2H-pyrazol-3-yl)methanone] showed a melting point of 109 °C. In addition, the IC50 in data set [1] stood at 2.2 nM. Besides, in data set [3], the IC50 was determined as 600 nM.

In the case of `COc1cc(OC)cc(N2CCN(C(=O)c3cc(C(C)C)nn3-c3ccccc3)CC2)c1` [Example E71, [4-(3,5-Dimethoxyphenyl)piperazin-1-yl](5-isopropyl-2-phenyl-2H-pyrazol-3-yl)methanone], the melting point came to 116 °C. Besides, the IC50 in data set [1] was found to be 200 nM. Also, the IC50 in data set [3] turned out to be 3740 nM.

Turning to `CC(=O)c1cccc(N2CCN(C(=O)c3cc(C)nn3-c3ccccc3)CC2)c1` [Example E107, 1-{3-[4-(5-Methyl-2-phenyl-2H-pyrazole-3-carbonyl)piperazin-1-yl]phenyl}ethanone], the melting point is 134 °C. Also, in data set [1], the IC50 worked out at 10.4 nM. For the same compound, in data set [3], the IC50 worked out at 1400 nM.

In the case of `CNC(=O)c1cccc(N2CCN(C(=O)c3cc(C)nn3-c3ccccc3)CC2)c1` [Example E116, N-Methyl-3-[4-(5-methyl-2-phenyl-2H-pyrazole-3-carbonyl)piperazin-1-yl]-benzamide], the melting point came to 180 °C. Besides, the IC50 in data set [1] was 11.3 nM. Also, the IC50 in data set [3] amounted to 2070 nM.

Turning to `COc1cc(OC)cc(N2CCN(C(=O)c3cc(C(F)(F)F)nn3-c3ccccc3)CC2)c1` [Example E117, [4-(3,5-Dimethoxyphenyl)piperazin-1-yl](2-phenyl-5-trifluoromethyl-2H-pyrazol-3-yl)methanone], the melting point is 84 °C. Also, in data set [1], the IC50 is 28.4 nM. Besides, the IC50 in data set [3] is 7900 nM.

As to `O=C(c1cc(C(F)(F)F)nn1-c1ccccc1)N1CCN(c2cccc(Cl)c2)CC1` [Example E118, [4-(3-Chlorophenyl)piperazin-1-yl](2-phenyl-5-trifluoromethyl-2H-pyrazol-3-yl)-methanone], the melting point worked out at 160 °C. Further, in data set [1], the IC50 came to 403 nM. Moreover, the IC50 in data set [3] came to 2300 nM.

In the case of `NC(=O)c1cccc(N2CCN(C(=O)c3cc(C(F)(F)F)nn3-c3ccccc3)CC2)c1` [Example E119, 3-[4-(2-Phenyl-5-trifluoromethyl-2H-pyrazole-3-carbonyl)piperazin-1-yl]benzamide], the melting point was determined as 160 °C. For the same compound, in data set [1], the IC50 was found to be 10.3 nM. Moreover, the IC50 in data set [3] is 1200 nM.
